Laboratory results from a melting point compilation (Tetko et al.; mined from patent text by program, amines drawn as free bases though some values may be those of a salt).

| Structure (SMILES) | melting point [°C] |
| --- | --- |
| CC(=O)N(C(C)=O)c1ccc2c(c1)C(C(Cl)(Cl)Cl)OC(C(Cl)(Cl)Cl)O2 (stereo not given) | 147 to 148 |
| CCCCOC(=O)CN1CCC(NC(=O)OC(C)(C)C)CC1 | 116 |
| CC1CC(=NNc2ccccc2)c2ncc(C(=O)O)c(=O)n2C1 (stereo not given) | 255 to 256 |
| O=Cc1ccccc1-c1noc2cc(Cl)ccc12 | 116 to 117 |
| COC(=O)CC1(C)Oc2ccc([N+](=O)[O-])cc2-n2c(Cl)ccc21 (stereo not given) | 124 to 125 |
| O=C(NCCCCN1CCN(c2csc3cc(F)ccc23)CC1)c1ccc(F)cc1 | 161 to 163 |
| N#Cc1ccc2[nH]c(C(=O)C34CC5CC(CC(C5)C3)C4)cc2c1 | 250 to 252 |
| COc1ccc(S(=O)(=O)C(Cc2cccnc2)(CC(C)C)C(=O)NO)cc1 (stereo not given) | 78 |
| CC(=O)NC(C)(C)c1ccc(CN2CCN(c3ccccc3)CC2)cc1 | 110 to 111 |
| CCCn1c(=O)c2[nH]c(C34CCC(C)(C(=O)O3)C4(C)C)nc2n(CCC)c1=O (stereo not given) | 200 to 201 |
| COc1cc(CBr)ccc1-c1ccccc1 | 187 to 189 |
| N#Cc1cccnc1N1CCN(CC(=O)Nc2ccc(F)c(C(F)(F)F)c2)CC1 | 120 to 122 |
| CCCCc1cn(-c2c(C)cccc2Cl)c(=O)n1Cc1ccc(-c2ccccc2-c2nnn[nH]2)cc1 | 163 to 164 |
| C=CCOC(=O)c1ccc(NC(=O)c2ccc(OC)c(C34CC5CC(CC(C5)C3)C4)c2)cc1 | 191 to 192 |
| C#CC(C)(C)Oc1ccc(-c2ccnc(C)c2)cc1 | 37 to 40 |
| C[C@@H](NC(=O)c1c[nH]c2ncc(-c3nccc4ccccc34)nc12)C(=O)N1CC(C#N)C1 | 180 to 185 |
| C=CCOc1ccc(COc2ccc(CC(=O)O)cc2Cl)cc1Cl | 132 to 134 |
| C=CCOc1ccc(C)c2c1C(C)(C)C(=O)N2Cc1ccccc1 | 107 to 108 |
| CNc1nc(Cl)c(Cl)c(N2CCN(CC[C@H]3CC[C@H](NC(=O)OC(C)(C)C)CC3)CC2)n1 | 199 to 202 |
| COc1cc(C2=Nc3ccc(N4CCOCC4)cc3C(=O)C2)ccc1O | 297 to 299 |
| CCN1C(=O)Cc2ccc(C(O)CCl)c(O)c21 (stereo not given) | 141 to 147 |
| O=C(O)c1cn(C2CC2)c2c(F)c(N3CCNC(CF)C3)c(F)c(F)c2c1=O (stereo not given) | 219 to 220 |
| O=c1[nH]c2ncc(-c3ccc(O)cc3)nc2n1CCc1ccccc1 | 283 to 284 |
| Cc1c(Cl)cncc1Cl | 46 to 47 |
| O=C1c2ccccc2C(=O)N1CCC(=O)N1c2ccccc2N(Cc2ccccc2)C(=O)[C@H]2CCC[C@H]21 (relative stereo) | 242 to 244 |

| Structure (SMILES) | melting point [°C] |
| --- | --- |
| CC1=NN(C(=O)c2ccccc2Cl)C2(O)CCCC12 (stereo not given) | 147 to 150 |
| COC(=O)COc1cccc(CN(C)c2cnc(-c3ccccc3)c(-c3ccccc3)n2)c1 | 132 to 134 |
| N#Cc1cc(C#N)c(-c2ccc(Cl)cc2)[nH]1 | 235 to 240 |
| CN(C)CC1CCCCN1CC(=O)N1c2ccccc2C(=O)Nc2cccnc21 (stereo not given) | 189 to 190 |
| CN(C)C(=O)c1ccc2c(c1)C(c1ncnc3cc(OCCCN4CCOCC4)ccc13)C(=O)N2 (stereo not given) | 168 to 169 |
| COc1ccc2cc(-c3cnc(Cc4ccc5ccccc5c4)o3)ccc2c1 | 159 to 162 |
| CN1C(=O)CN=C(c2ccccc2F)c2cc(NC(=O)N3CC3)ccc21 | 186 to 190 |
| CC(C)C[C@@H]1NC(=O)O[C@H]1CCOS(C)(=O)=O | 99 to 100 |
| O=C1CCC(N2Cc3c(OCc4ccc(CN5CCC(O)CC5)cc4)cccc3C2=O)C(=O)N1 (stereo not given) | 204 to 206 |
| COc1cc(Nc2c(C#N)cnc3cc(OCC4CCN(C)CC4)ccc23)c(Cl)cc1Cl | 191 to 193 |
| COC(=O)Cc1csc2cc(-c3ccccc3)cn12 | 88 to 89 |
| CC(NC(=O)NCCCCC1CCSS1)C(=O)NS(N)(=O)=O (stereo not given) | 156 to 157 |
| COCc1c(I)cc(Cl)nc1OC | 69 to 72 |
| CCOC(=O)/C=C/c1ccc(Cl)c(Cl)n1 | 102 to 103 |
| COc1cccc(C(=O)Nc2nnn[nH]2)c1[N+](=O)[O-] | 271 |
| CCn1c(=O)c2c(nc(/C=C/c3cc(OC)c(OC(C)=O)c(OC)c3)n2C)n(CC)c1=O | 248 to 249 |
| COC(=O)c1cc(Oc2ccc(F)cc2F)ncc1[N+](=O)[O-] | 90.2 to 91.4 |
| CCCCNC(=O)c1cccc(-c2ccnc3c(C(=O)c4cccs4)cnn23)c1 | 172 to 174 |
| COc1ccc(/C(=C/C=C/C(=O)Oc2ccc([N+](=O)[O-])cc2)c2ccccc2)cc1 | 113 to 115 |
| CC(C)CCCCCCCC=CC1CC(=O)N(NC(=O)CCc2cc(C(C)(C)C)c(O)c(C(C)(C)C)c2)C1=O (stereo not given) | 62 to 68 |
| CC(C)OCCCNc1c([N+](=O)[O-])cnc2cccnc12 | 62.5 to 63.5 |
| CC(=O)Oc1cc(OC(C)=O)cc(OC(C)=O)c1 | 105 to 106 |
| O=C(c1ccccc1)c1cc2ccnc(Cl)c2[nH]1 | 152 to 153 |
| CN1OCCN(c2cc(Cl)cc(Cl)c2)C1=O | 105 to 106 |

Now from value to molecule:

| melting point [°C] | Structure (SMILES) |
| --- | --- |
| 85 to 95 | CCCC=Cc1c(C(C)C)cc(C(C)C)c(CO)c1-c1ccc(F)cc1 |
| 188 to 190 | CC(=O)NC[C@H]1CN(c2ccc(N3CCC4(CC3)CC4(C#N)C#N)c(F)c2)C(=O)O1 |
| 72 | COCCOCOc1ccc2cc(C(=O)CNCc3cccc(-c4ccc(Nc5ccccc5C(=O)O)cc4)c3)ccc2c1 |
| 203 to 205 | CCCCc1ncc(CC(NC(=O)CC)C(=O)O)n1Cc1ccccc1Cl (stereo not given) |
| 361 to 363 | Cc1sc2nc3ccc(C(N)=O)cn3c(=O)c2c1C |
| 142 to 144 | CN1CCNC1=C[N+](=O)[O-] |
| 181 | Cc1ccc(C(=O)c2ccc3[nH]c(=O)nc(-c4cccc(Cl)c4)c3c2)cc1 |
| 98 to 100 | O=C(Nc1ccc(O)cc1)C(=O)N1CCC(Cc2ccc(F)cc2)CC1 |
| 143 | c1ccc(C(c2ccnc3ccccc23)n2ccnc2)cc1 (stereo not given) |
| 115 | CCC(CC)CNC(=O)c1ccc2c(c1)N(C(C)CN1CCCC1)c1ccccc1S2 (racemic) |
| 170 | Cc1ccc(-c2cc(OCC(=O)N3CCOCC3)c3c(Cl)cccc3n2)cc1 |
| 186 | O=C(O)CCCC(=O)N[C@@H](Cc1ccccc1)C(=O)NCCCCNc1ncccn1 |
| > 275 | Cn1c(=O)c2[nH]c(/C=C/c3ccc4c(c3)OCO4)nc2n(C)c1=O |
| 149 to 150 | Cn1nc(C2CCCC2)cc1N |
| 229 to 230 | CC1(C)OC(=O)Nc2ccc(-c3cc(C#N)ccc3F)cc21 |
| 195 to 196 | Oc1ccc2c(c1)C(n1cc[nH]c1=S)CCC2 (stereo not given) |
| 70 | CC#CCOc1ccc(S(=O)(=O)NC(C(=O)NO)c2ccc(OCCN3CCCC3)cc2)cc1 (stereo not given) |
| 134 to 135 | N#Cc1cc(Cl)ccc1Oc1cc(N2CCOCC2)c(F)cc1OCc1ccccc1 |
| 120 | O=c1nc(C2CC2)sc2ccccc12 |
| 116 to 117 | COC1=C(OC)C(=O)c2c(N)cccc2C1=O |
| 231 to 233 | CC(C)Cn1cnc2c(N)nc3c(c21)CCCN3 |
| 217 to 219 | Nc1noc(-c2cc3c(Oc4ccc(Cl)cc4)cncc3s2)n1 |
| 203 to 205 | CCCC(=NO)c1ccc(C(=O)O)cn1 |
| 108 to 109 | O=C(O)C1CC(=O)N(c2cc(C(F)(F)F)cc(C(F)(F)F)c2)C1 (stereo not given) |
| 169 to 172 | CCNC(=S)NC1=Nc2ccc(OC(F)(F)F)cc2CS1 |
| 72 to 74 | O=C(CCCc1ccccc1)N(O)Cc1ccccc1 |

| melting point [°C] | Structure (SMILES) |
| --- | --- |
| 164 to 165 | COc1cc2c(cc1C(=O)Cc1ccc(C(=O)O)cc1)C(C)(C)CCC2(C)C |
| 98 to 99 | Cc1cc2c(cc1Sc1ccc(C=O)cc1)C(C)(C)CCC2(C)C |
| 185 to 188 | O=C(NC(=O)c1c(F)cccc1F)Nc1ccc(OC(c2ccc(Cl)cc2)C2CC2)cc1 (stereo not given) |
| > 230 | CSc1nn2c(N)cc(C)nc2c1S(=O)(=O)c1ccc(C(C)(C)C)cc1 |
| 160 to 161 | COc1cc2c(cc1OC)C(C(S)(C#N)c1ccccc1)=NCC2 (stereo not given) |
| 214 to 216 | O=C(NO)c1ccc(CNC(=O)c2[nH]c(-c3cccs3)cc2-c2ccc(F)cc2)cc1 |
| 196 to 197 | Nc1cccc2c1CNC2=O |
| 239 to 241 | Cc1nc(N)nc(N)c1-c1cc(C#N)ccc1Cl |
| 310 to 312 | CC1(C)C(=O)Nc2cc3[nH]c(-c4cncnc4)nc3cc21 |
| 136 | O=C(O)CCC(=O)c1ccc(F)c([N+](=O)[O-])c1 |
| 220 to 224 | COc1ccc(-c2cc(C(F)(F)F)nn2-c2ccc(S(N)(=O)=O)cc2)cc1I |
| 142 to 143 | CCCCOCCOc1ccc(-c2ccc3c(c2)C=C(C(=O)Nc2ccc(SCc4nccn4CCCC(N)=O)cc2)CCN3CC(C)C)cc1 |
| 100 to 101 | COc1ccc(Cl)cc1C1=NCCO1 |
| 148 to 150 | CN(CCN)CCNC(=O)c1nc(Br)c(N)nc1N |
| 185 to 186 | CN(c1cccc2cc(C3=NCC(CC(N)=O)S3)[nH]c12)S(=O)(=O)c1cccnc1 (stereo not given) |
| 180 to 182 | COc1cc(OC)nc(NC(=O)NS(=O)(=O)Cc2ccccc2S(C)(=O)=O)n1 |
| 112 to 114 | COc1cc(OC)c2c(=O)[nH]c(-c3cc(C)c(OCCN4CC(NC(C)=O)C4)c(C)c3)nc2c1 |
| 46 to 48 | Cc1ccc(OC2=C(Oc3ccc(C)cc3)C(F)(F)C(F)(F)C2(F)F)cc1 |
| 150 to 152 | CCOc1nc(NCc2ccco2)nc(Nc2ccc3nc(C)[nH]c3c2)n1 |
| 160 to 161 | O=Cc1csc(N(c2ccccc2)c2ccccc2)n1 |
| 146 | O=C(CCl)Nc1nc(C(Cl)(Cl)Cl)ns1 |
| 142 | O=C(O)[C@@H](Cc1ccccn1)Nc1cc(-c2ccc(OCc3ccccc3)cc2)ncn1 |
| 133 to 135 | C#CCN(Cc1ccc2nc(C)[nH]c(=O)c2c1)c1ccc(C(=O)NC(COC(C)=O)c2cccc([N+](=O)[O-])c2)cc1 (stereo not given) |
| 185 to 189 | CC(C)c1cc(Cl)cc2c1OC(C(F)(F)F)C(C(=O)O)=C2 (stereo not given) |
| 193 | C=C(C)COc1ccc(Br)cc1CN(CC)c1ccc(C(=O)NS(=O)(=O)c2ccccc2)cn1 |
